Laboratory results as given in ChEMBL document CHEMBL3425399, “Progress in discovery of small-molecule modulators of protein-protein interactions via fragment screening” (Bioorg Med Chem Lett, 2015).

Key:
[1] = target: T1, DNA repair protein RAD51 homolog 1 (Homo sapiens, UniProt Q06609); experiment: Binding affinity to RAD51 (unknown origin) by isothermal calorimetry
T1 sequence (Q06609 whole entry): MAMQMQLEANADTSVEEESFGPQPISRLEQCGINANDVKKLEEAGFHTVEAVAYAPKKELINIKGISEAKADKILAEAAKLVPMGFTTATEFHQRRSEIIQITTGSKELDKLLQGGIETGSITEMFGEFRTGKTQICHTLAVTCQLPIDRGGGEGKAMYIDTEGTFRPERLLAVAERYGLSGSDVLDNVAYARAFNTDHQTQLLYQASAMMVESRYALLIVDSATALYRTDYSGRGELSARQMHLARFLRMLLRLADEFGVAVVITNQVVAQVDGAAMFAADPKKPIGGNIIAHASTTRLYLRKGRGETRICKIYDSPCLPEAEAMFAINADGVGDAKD

Hepacivirus hominis [2] = experiment: Inhibition of HCV NS3 protease at 0.01 uM by FRET assay
Hepatitis C virus = experiment: Antiviral activity against HCV by cell based viral replicon assay; format: functional, organism-based, Hepacivirus hominis
GTPase KRas = GTPase KRas (Homo sapiens, UniProt P01116); experiment: Binding affinity to KRas (unknown origin)
Chain of GTPase KRas (P01116 whole entry): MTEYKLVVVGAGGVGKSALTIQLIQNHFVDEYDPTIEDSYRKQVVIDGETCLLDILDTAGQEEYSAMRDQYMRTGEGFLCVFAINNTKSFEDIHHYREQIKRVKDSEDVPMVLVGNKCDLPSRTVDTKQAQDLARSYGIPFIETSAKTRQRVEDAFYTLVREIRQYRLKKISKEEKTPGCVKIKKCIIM

Hepacivirus hominis [3] = experiment: Inhibition of HCV NS3 protease at 500 uM by FRET assay

SMILES	Kd [1]	also measured
N[C@@H](Cc1c[nH]c2ccccc12)C(=O)OCCc1ccccc1	35 µM	–
O=S(=O)(NCCc1c[nH]c2ccccc12)c1cc(Br)c(Cl)s1	1.3 µM	–
O=C(N[C@@H](Cc1c[nH]c2ccccc12)C(=O)OCCc1ccccc1)c1ccccc1	3 µM	–
CC[C@@H](N[C@@H](C)CC(=O)NCCN)c1ccc(Cl)c(Oc2ccccc2)c1F	–	inhibition (Hepacivirus hominis [2]): 68%; EC50 (Hepatitis C virus): 0.008 µM
Oc1ccc2[nH]ccc2c1	2100 µM	–
COC(=O)[C@@H](N)Cc1c[nH]c2ccccc12 [TRYPTOPHAN METHYL ESTER]	570 µM	–
Cc1[nH]c2ccccc2c1Cc1nc2ccccc2[nH]1	–	Kd (GTPase KRas): 2000 µM
CC[C@H](C)[C@H](N)C(=O)Nc1ccc2nc(Cc3c[nH]c4ccccc34)[nH]c2c1	–	Kd (GTPase KRas): 190 µM
NCc1ccc(Oc2ccccc2)cc1	–	inhibition (Hepacivirus hominis [3]): 55%
